Like-named read-outs stand apart in the source and are kept apart here.

Holding throughout (assay type): cell-based
Assay [1] concerns the target T1, hSTING-Q (Homo sapiens, UniProt Q86WV6, R293Q).
T1 construct: expressed in transfected cells
As to the kind of experiment: Cellular Functional Assay I: ISRE-SEAP reporter, hSTING-Q allele.

Assay [2] deals with hSTING-wt (Homo sapiens, UniProt Q86WV6). As to the kind of experiment: Cellular Functional Assay I: ISRE-SEAP reporter in HEK-293T-Dual Null cells transfected with hSTING-wt. As to conditions: HEK-293T-Dual Null, hSTING-wt.
The target in assay [3] is T2, mSTING-wt (Mus musculus, UniProt Q3TBT3).
T2 sequence (Q3TBT3 1-378): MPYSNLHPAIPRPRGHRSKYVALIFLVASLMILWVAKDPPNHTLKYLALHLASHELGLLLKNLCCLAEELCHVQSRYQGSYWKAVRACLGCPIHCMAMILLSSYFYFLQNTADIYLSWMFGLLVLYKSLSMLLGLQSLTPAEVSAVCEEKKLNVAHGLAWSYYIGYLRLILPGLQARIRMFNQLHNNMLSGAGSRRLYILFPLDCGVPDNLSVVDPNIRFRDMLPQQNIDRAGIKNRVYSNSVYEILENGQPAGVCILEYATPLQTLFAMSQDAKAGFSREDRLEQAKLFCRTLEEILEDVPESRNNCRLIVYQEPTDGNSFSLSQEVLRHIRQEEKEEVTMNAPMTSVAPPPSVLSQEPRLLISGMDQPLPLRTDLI
As to the kind of experiment: Cellular Functional Assay I: ISRE-SEAP reporter in HEK-293T-Dual Null cells transfected with mouse STING. As to conditions: SEAP reporter, HEK-293T-Dual Null, mSTING-wt; read-out: EC50 mSTING-wt.

Assay [4] addresses hSTING-H232 (Homo sapiens, UniProt Q86WV6). As to the kind of experiment: Cellular Functional Assay I: ISRE-SEAP reporter in HEK-293T-Dual Null cells transfected with hSTING-H232. As to conditions: HEK-293T-Dual Null, hSTING-H232.
In assay [5] the target is hSTING-HAQ (Homo sapiens, UniProt Q86WV6, G230A/H232R/R293Q/R71H). Kind of assay: Cellular Functional Assay I: ISRE-SEAP reporter in HEK-293T-Dual Null cells transfected with hSTING-HAQ. As to conditions: HEK-293T-Dual Null, hSTING-HAQ.
Assay [6] has as its system human PBMCs. As to the kind of experiment: Cellular Functional Assay III: IFN-β production from human PBMCs. As to conditions: PBMC. The method, then: Frozen human PBMCs (BioIVT Inc.) were thawed first in a 37° C. water bath, then washed with RPMI/10% FBS/2 mM EDTA medium twice before establishing a viable cell count by Trypan Blue. The final cell density for each donor was 5×10^6 cells per well with RPMI/10% FBS medium in a 96 well u-bottom plate.
Human PBMCs were then incubated with testing compounds with indicated concentrations and control for 4 hours at 37° C. in cell culture incubator. After incubation, supernatant was collected and used for measuring induced cytokine level by cytometric bead array analysis.

In assay [7] the target is T3, hSTING-AQ (Homo sapiens, UniProt Q86WV6, G230A/R293Q).
T3 construct: expressed in transfected cells
Kind of assay: Cellular Functional Assay I: ISRE-SEAP reporter, hSTING-AQ allele.

The mark [8] stands for this setting: Donor 1, 4 hours, read-out: Potency (IFN-β production) in Human PBMCs (EC50s) Donor 1.
Where [9] appears, read: Donor 2, 4 hours, read-out: Potency (IFN-β production) in Human PBMCs (EC50s) Donor 2.
The mark [10] stands for this setting: Donor 3, 4 hours, read-out: Potency (IFN-β production) in Human PBMCs (EC50s) Donor 3.
Where [11] appears, read: Donor 4, 4 hours, read-out: Potency (IFN-β production) in Human PBMCs (EC50s) Donor 4.

T3 sequence (Q86WV6 whole entry G230A/H232R/R293Q): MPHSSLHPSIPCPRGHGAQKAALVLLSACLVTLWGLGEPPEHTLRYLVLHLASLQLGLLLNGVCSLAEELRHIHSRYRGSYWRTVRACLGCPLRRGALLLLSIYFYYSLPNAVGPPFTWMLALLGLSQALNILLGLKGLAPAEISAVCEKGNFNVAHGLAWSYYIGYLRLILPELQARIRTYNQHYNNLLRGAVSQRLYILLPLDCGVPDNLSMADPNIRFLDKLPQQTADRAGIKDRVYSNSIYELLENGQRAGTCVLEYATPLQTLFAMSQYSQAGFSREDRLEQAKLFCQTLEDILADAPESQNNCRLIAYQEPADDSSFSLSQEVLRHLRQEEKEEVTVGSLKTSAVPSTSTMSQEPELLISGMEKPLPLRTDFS
Chain of hSTING-wt (Q86WV6 whole entry H232R): as the sequence (Q86WV6 whole entry G230A/H232R/R293Q) above, with A230G, Q293R counted along it
Chain of hSTING-H232 (Q86WV6 whole entry): as the sequence (Q86WV6 whole entry G230A/H232R/R293Q) above, with A230G, R232H, Q293R counted along it
T1 sequence (Q86WV6 whole entry R293Q): as the sequence (Q86WV6 whole entry G230A/H232R/R293Q) above, with A230G, R232H counted along it
Chain of hSTING-HAQ (Q86WV6 whole entry R71H/G230A/H232R/R293Q): as the sequence (Q86WV6 whole entry G230A/H232R/R293Q) above, with R71H counted along it

As for `CCn1nc(C)cc1C(=O)Nc1nc2cc(C(N)=O)cnc2n1C/C=C/Cn1c(NC(=O)c2cc(C)nn2CC)nc2cc(C(N)=O)cc(OCCCN3CCOCC3)c21` [Compound T, 3-[(E)-4-[5-carbamoyl-2-[(2-ethyl-5-methyl-pyrazole-3-carbonyl)amino]-7-(3-morpholinopropoxy)benzimidazol-1-yl]but-2-enyl]-2-[(2-ethyl-5-methyl-pyrazole-3-carbonyl)amino]imidazo[4,5-b]pyridine-6-carboxamide], the EC50 in assay [1] lay within 1 to 500 nM; in assay [2], 1 to 500 nM; in assay [3], 1 to 500 nM; in assay [4], 1 to 500 nM; in assay [5], 1 to 500 nM; in assay [6] (setting [8]) it was 100 to 500 nM. The EC50 in assay [6] (setting [9]) is below 100 nM; in assay [6] (setting [10]) it was below 100 nM; in assay [6] (setting [11]) it was 100 to 500 nM; in assay [7], 1 to 500 nM.
On to `CCn1nc(C)cc1C(=O)Nc1nc2cc(C(N)=O)cnc2n1C/C=C/Cn1c(NC(=O)c2cc(C)nn2CC)nc2cc(C(N)=O)cc(OCCCNCCOC(F)F)c21` [Compound U, 3-[(E)-4-[5-carbamoyl-7-[3-[2-(difluoromethoxy)ethylamino]propoxy]-2-[(2-ethyl-5-methyl-pyrazole-3-carbonyl)amino]benzimidazol-1-yl]but-2-enyl]-2-[(2-ethyl-5-methyl-pyrazole-3-carbonyl)amino]imidazo[4,5-b]pyridine-6-carboxamide], for which the EC50 in assay [1], in assay [2], in assay [3], in assay [4], in assay [5] and in assay [7] was 1 to 500 nM in each case.
On to `CCn1nc(C)cc1C(=O)Nc1nc2cc(C(N)=O)cnc2n1C/C=C/Cn1c(NC(=O)c2cc(C)nn2CC)nc2cc(C(N)=O)cc(OCCCN(C)CCOC)c21` [Compound V, 3-[(E)-4-[5-carbamoyl-2-[(2-ethyl-5-methyl-pyrazole-3-carbonyl)amino]-7-[3-[2-methoxyethyl(methyl)amino]propoxy]benzimidazol-1-yl]but-2-enyl]-2-[(2-ethyl-5-methyl-pyrazole-3-carbonyl)amino]imidazo[4,5-b]pyridine-6-carboxamide], for which the EC50 in assay [1], in assay [2], in assay [3], in assay [4], in assay [5] and in assay [7] was 1 to 500 nM each time.
`[2H]C1([2H])OC([2H])([2H])C([2H])([2H])N(CCCOc2cc(C(N)=O)cc3nc(NC(=O)c4cc(C)nn4CC)n(C/C=C/Cn4c(NC(=O)c5cc(C)nn5CC)nc5cc(C(N)=O)cnc54)c23)C1([2H])[2H]` [Compound W, 3-[(E)-4-[5-carbamoyl-2-[(2-ethyl-5-methyl-pyrazole-3-carbonyl)amino]-7-[3-(2,2,3,3,5,5,6,6-octadeuteriomorpholin-4-yl)propoxy]benzimidazol-1-yl]but-2-enyl]-2-[(2-ethyl-5-methyl-pyrazole-3-carbonyl)amino]imidazo[4,5-b]pyridine-6-carboxamide]: the EC50 in assay [1] fell in the range of 1 to 500 nM; in assay [2] it was 1 to 500 nM; in assay [3], 1 to 500 nM; in assay [4], 1 to 500 nM; in assay [5], 1 to 500 nM; in assay [6] (setting [8]) it was 100 to 500 nM. The EC50 is 100 to 500 nM in assay [6] (setting [9]), below 100 nM in assay [6] (setting [10]), 100 to 500 nM in assay [6] (setting [11]) and 1 to 500 nM in assay [7].
For `CCn1nc(C)cc1C(=O)Nc1nc2cc(C(N)=O)cnc2n1C/C=C/Cn1c(NC(=O)c2cc(C)nn2CC)nc2cc(C(N)=O)cc(OCCCN3CCN(C(C)=O)CC3)c21` [Compound X, 3-[(E)-4-[7-[3-(4-acetylpiperazin-1-yl)propoxy]-5-carbamoyl-2-[(2-ethyl-5-methyl-pyrazole-3-carbonyl)amino]benzimidazol-1-yl]but-2-enyl]-2-[(2-ethyl-5-methyl-pyrazole-3-carbonyl)amino]imidazo[4,5-b]pyridine-6-carboxamide], the EC50 in assay [1] was 1 to 500 nM; in assay [2], 1 to 500 nM; in assay [3] it was 1 to 500 nM; in assay [4], 1 to 500 nM; in assay [5], 1 to 500 nM; in assay [6] (setting [8]), 100 to 500 nM. For the same compound, the EC50 in assay [6] (setting [9]) is 100 to 500 nM; in assay [6] (setting [10]), 100 to 500 nM; in assay [6] (setting [11]), 100 to 500 nM; in assay [7] it was 1 to 500 nM.
Consider `CCn1nc(C)cc1C(=O)Nc1nc2cc(C(N)=O)cnc2n1C/C=C/Cn1c(NC(=O)c2cc(C)nn2CC)nc2cc(C(N)=O)cc(OCCCN3CCC[C@H]3COC(F)F)c21` [Compound Y, 3-[(E)-4-[5-carbamoyl-7-[3-[(2S)-2-(difluoromethoxymethyl)pyrrolidin-1-yl]propoxy]-2-[(2-ethyl-5-methyl-pyrazole-3-carbonyl)amino]benzimidazol-1-yl]but-2-enyl]-2-[(2-ethyl-5-methyl-pyrazole-3-carbonyl)amino]imidazo[4,5-b]pyridine-6-carboxamide], for which the EC50 is 1 to 500 nM in assay [1]; below 1 nM in assay [2]; 1 to 500 nM in assay [3]; below 1 nM in assay [4]; 1 to 500 nM in assay [5]; below 100 nM in assay [6] (setting [8]). Besides, the EC50 in assay [6] (setting [9]) is below 100 nM; in assay [6] (setting [10]) it was below 100 nM; in assay [6] (setting [11]) it was below 100 nM; in assay [7] it was 1 to 500 nM.
Regarding `CCn1nc(C)cc1C(=O)Nc1nc2cc(C(N)=O)cnc2n1C/C=C/Cn1c(NC(=O)c2cc(C)nn2CC)nc2cc(C(N)=O)cc(OCCCN3CCCOCC3)c21` [Compound Z, 3-[(E)-4-[5-carbamoyl-2-[(2-ethyl-5-methyl-pyrazole-3-carbonyl)amino]-7-[3-(1,4-oxazepan-4-yl)propoxy]benzimidazol-1-yl]but-2-enyl]-2-[(2-ethyl-5-methyl-pyrazole-3-carbonyl)amino]imidazo[4,5-b]pyridine-6-carboxamide], the EC50 in assay [1], in assay [2], in assay [3], in assay [4], in assay [5] and in assay [7] was 1 to 500 nM throughout.
